# Reference: publication PMC4620497 (Scientific Reports, 2015)
# Legend:
# AKT3 = target: T1, AKT3 (Homo sapiens, UniProt Q9Y243); assay: KINOMEscan panel screen; assay type: binding; settings: read-out: Percent Control(%)
# T1 construct: purchased DiscoveRx KINOMEscan (Ambit Biosciences)
# ALK(C1156Y) = target: T2, ALK(C1156Y) (Homo sapiens, UniProt Q9UM73, C1156Y); assay: KINOMEscan panel screen; assay type: binding; settings: read-out: Percent Control(%)
# T2 construct: purchased DiscoveRx KINOMEscan (Ambit Biosciences)
# ASK2 = target: T3, ASK2 (Homo sapiens, UniProt O95382); assay: KINOMEscan panel screen; assay type: binding; settings: read-out: Percent Control(%)
# T3 construct: purchased DiscoveRx KINOMEscan (Ambit Biosciences)
# CAMKK2 = target: T4, CAMKK2 (Homo sapiens, UniProt Q96RR4); assay: KINOMEscan panel screen; assay type: binding; settings: read-out: Percent Control(%)
# T4 construct: purchased DiscoveRx KINOMEscan (Ambit Biosciences)
# CLK1 = target: T5, CLK1 (Homo sapiens, UniProt P49759); assay: KINOMEscan panel screen; assay type: binding; settings: read-out: Percent Control(%)
# T5 construct: purchased DiscoveRx KINOMEscan (Ambit Biosciences)
# DLK = target: T6, DLK (Homo sapiens, UniProt Q12852); assay: KINOMEscan panel screen; assay type: binding; settings: read-out: Percent Control(%)
# T6 sequence (Q12852 1-859): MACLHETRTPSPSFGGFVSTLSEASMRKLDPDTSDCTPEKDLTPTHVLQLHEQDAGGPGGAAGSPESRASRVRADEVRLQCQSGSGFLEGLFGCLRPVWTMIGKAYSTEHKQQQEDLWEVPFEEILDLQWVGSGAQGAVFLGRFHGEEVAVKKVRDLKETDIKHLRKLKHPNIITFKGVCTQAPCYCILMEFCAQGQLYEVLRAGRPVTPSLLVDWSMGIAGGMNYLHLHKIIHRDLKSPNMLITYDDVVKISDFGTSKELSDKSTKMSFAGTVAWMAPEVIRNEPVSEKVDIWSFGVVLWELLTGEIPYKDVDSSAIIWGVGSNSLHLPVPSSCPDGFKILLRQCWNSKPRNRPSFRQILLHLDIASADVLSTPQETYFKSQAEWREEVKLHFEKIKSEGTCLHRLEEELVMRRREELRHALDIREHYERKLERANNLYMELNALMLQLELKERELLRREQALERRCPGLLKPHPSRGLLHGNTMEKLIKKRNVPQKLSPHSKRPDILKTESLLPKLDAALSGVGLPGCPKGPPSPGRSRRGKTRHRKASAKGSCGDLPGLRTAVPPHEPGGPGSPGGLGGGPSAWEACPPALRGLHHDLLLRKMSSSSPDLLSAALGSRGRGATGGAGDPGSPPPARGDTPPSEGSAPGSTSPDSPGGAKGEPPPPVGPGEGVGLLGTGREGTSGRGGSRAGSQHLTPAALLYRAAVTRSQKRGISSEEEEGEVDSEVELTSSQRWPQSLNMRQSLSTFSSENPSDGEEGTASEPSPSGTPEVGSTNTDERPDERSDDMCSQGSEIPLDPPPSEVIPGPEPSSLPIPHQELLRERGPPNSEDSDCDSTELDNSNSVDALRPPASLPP
# EPHB4 = target: T7, EPHB4 (Homo sapiens, UniProt P54760); assay: KINOMEscan panel screen; assay type: binding; settings: read-out: Percent Control(%)
# T7 construct: purchased DiscoveRx KINOMEscan (Ambit Biosciences)
# ERK1 = target: T8, ERK1 (Homo sapiens, UniProt P27361); assay: KINOMEscan panel screen; assay type: binding; settings: read-out: Percent Control(%)
# T8 construct: purchased DiscoveRx KINOMEscan (Ambit Biosciences)
# KIT = target: T9, KIT (Homo sapiens, UniProt P10721); assay: KINOMEscan panel screen; assay type: binding; settings: read-out: Percent Control(%)
# T9 construct: DNA tag (qPCR read-out); purchased Ambit Biosciences (KINOMEscan service)
# LKB1 = target: T10, LKB1 (Homo sapiens, UniProt Q15831); assay: KINOMEscan panel screen; assay type: binding; settings: read-out: Percent Control(%)
# T10 construct: purchased DiscoveRx KINOMEscan (Ambit Biosciences)
# MARK3 = target: T11, MARK3 (Homo sapiens, UniProt P27448); assay: KINOMEscan panel screen; assay type: binding; settings: read-out: Percent Control(%)
# T11 construct: purchased DiscoveRx KINOMEscan (Ambit Biosciences)
# MAST1 = target: T12, MAST1 (Homo sapiens, UniProt Q9Y2H9); assay: KINOMEscan panel screen; assay type: binding; settings: read-out: Percent Control(%)
# T12 construct: purchased DiscoveRx KINOMEscan (Ambit Biosciences)
# MTOR = target: T13, MTOR (Homo sapiens, UniProt P42345); assay: KINOMEscan panel screen; assay type: binding; settings: read-out: Percent Control(%)
# T13 construct: purchased DiscoveRx KINOMEscan (Ambit Biosciences)
# MUSK = target: T14, MUSK (Homo sapiens, UniProt O15146); assay: KINOMEscan panel screen; assay type: binding; settings: read-out: Percent Control(%)
# T14 construct: purchased DiscoveRx KINOMEscan (Ambit Biosciences)
# PFTK1 = target: T15, PFTK1 (Homo sapiens, UniProt O94921); assay: KINOMEscan panel screen; assay type: binding; settings: read-out: Percent Control(%)
# T15 construct: purchased DiscoveRx KINOMEscan (Ambit Biosciences)
# PHKG1 = target: T16, PHKG1 (Homo sapiens, UniProt Q16816); assay: KINOMEscan panel screen; assay type: binding; settings: read-out: Percent Control(%)
# T16 construct: purchased DiscoveRx KINOMEscan (Ambit Biosciences)
# PHKG2 = target: T17, PHKG2 (Homo sapiens, UniProt P15735); assay: KINOMEscan panel screen; assay type: binding; settings: read-out: Percent Control(%)
# T17 construct: purchased DiscoveRx KINOMEscan (Ambit Biosciences)
# PIK3CA(M1043I) = target: T18, PIK3CA(M1043I) (Homo sapiens, UniProt P42336, M1043I); assay: KINOMEscan panel screen; assay type: binding; settings: read-out: Percent Control(%)
# T18 construct: purchased DiscoveRx KINOMEscan (Ambit Biosciences)
# SGK2 = target: T19, SGK2 (Homo sapiens, UniProt Q9HBY8); assay: KINOMEscan panel screen; assay type: binding; settings: read-out: Percent Control(%)
# T19 construct: purchased DiscoveRx KINOMEscan (Ambit Biosciences)
# SIK = target: T20, SIK (Homo sapiens, UniProt P57059); assay: KINOMEscan panel screen; assay type: binding; settings: read-out: Percent Control(%)
# T20 construct: purchased DiscoveRx KINOMEscan (Ambit Biosciences)
# TAOK3 = target: T21, TAOK3 (Homo sapiens, UniProt Q9H2K8); assay: KINOMEscan panel screen; assay type: binding; settings: read-out: Percent Control(%)
# T21 construct: purchased DiscoveRx KINOMEscan (Ambit Biosciences)
# TESK1 = target: T22, TESK1 (Homo sapiens, UniProt Q15569); assay: KINOMEscan panel screen; assay type: binding; settings: read-out: Percent Control(%)
# T22 construct: purchased DiscoveRx KINOMEscan (Ambit Biosciences)
# ULK3 = target: T23, ULK3 (Homo sapiens, UniProt Q6PHR2); assay: KINOMEscan panel screen; assay type: binding; settings: read-out: Percent Control(%)
# T23 construct: purchased DiscoveRx KINOMEscan (Ambit Biosciences)
# FLT3-ITD = FLT3-ITD (Homo sapiens, UniProt P36888, ITD); assay: biochemical; assay type: binding
# [1] = tested on: β-catenin target genes in primary AML cells; assay: Real-time qPCR of β-catenin target genes in primary AML cells; assay type: cell-based, human
# Description: To confirm the Wnt/β-catenin inhibition effect of SKLB-677, we examined the protein levels of total β-catenin and non-phospho-β-catenin (active β-catenin); the non-phospho β-catenin other than the phosphorylated β-catenin enters the cell nucleus and plays the gene regulation function. […] We further examined the expressions of β-catenin target genes MYC, CCND1, and NKD1 by real-time qPCR. […] Finally, the real-time qPCR assays were used again to inspect the influence of SKLB-677 on Wnt/β-catenin signaling in the primary AML cells.
# Total RNA of cell samples and tumor samples was extracted using RNAsimple total RNA kit (TIANGEN) according to the manufacturer’s instructions. cDNA was generated using the iScript^TMcDNA Synthesis Kit (Bio-Rad), and the RT-PCR reactions were performed using SsoAdvanced SYBR Green Supermix (Bio-Rad). The reaction consisted of 40 cycles of denaturation at 95 °C for 5 s and annealing/extension for 30s at 60 °C. The primer sequences are listed in Supplementary Table S7.
# C32 = assay: MTT cell viability assay; settings: Homo sapiens, C32, 72 h
# T12 sequence (Q9Y2H9 whole entry): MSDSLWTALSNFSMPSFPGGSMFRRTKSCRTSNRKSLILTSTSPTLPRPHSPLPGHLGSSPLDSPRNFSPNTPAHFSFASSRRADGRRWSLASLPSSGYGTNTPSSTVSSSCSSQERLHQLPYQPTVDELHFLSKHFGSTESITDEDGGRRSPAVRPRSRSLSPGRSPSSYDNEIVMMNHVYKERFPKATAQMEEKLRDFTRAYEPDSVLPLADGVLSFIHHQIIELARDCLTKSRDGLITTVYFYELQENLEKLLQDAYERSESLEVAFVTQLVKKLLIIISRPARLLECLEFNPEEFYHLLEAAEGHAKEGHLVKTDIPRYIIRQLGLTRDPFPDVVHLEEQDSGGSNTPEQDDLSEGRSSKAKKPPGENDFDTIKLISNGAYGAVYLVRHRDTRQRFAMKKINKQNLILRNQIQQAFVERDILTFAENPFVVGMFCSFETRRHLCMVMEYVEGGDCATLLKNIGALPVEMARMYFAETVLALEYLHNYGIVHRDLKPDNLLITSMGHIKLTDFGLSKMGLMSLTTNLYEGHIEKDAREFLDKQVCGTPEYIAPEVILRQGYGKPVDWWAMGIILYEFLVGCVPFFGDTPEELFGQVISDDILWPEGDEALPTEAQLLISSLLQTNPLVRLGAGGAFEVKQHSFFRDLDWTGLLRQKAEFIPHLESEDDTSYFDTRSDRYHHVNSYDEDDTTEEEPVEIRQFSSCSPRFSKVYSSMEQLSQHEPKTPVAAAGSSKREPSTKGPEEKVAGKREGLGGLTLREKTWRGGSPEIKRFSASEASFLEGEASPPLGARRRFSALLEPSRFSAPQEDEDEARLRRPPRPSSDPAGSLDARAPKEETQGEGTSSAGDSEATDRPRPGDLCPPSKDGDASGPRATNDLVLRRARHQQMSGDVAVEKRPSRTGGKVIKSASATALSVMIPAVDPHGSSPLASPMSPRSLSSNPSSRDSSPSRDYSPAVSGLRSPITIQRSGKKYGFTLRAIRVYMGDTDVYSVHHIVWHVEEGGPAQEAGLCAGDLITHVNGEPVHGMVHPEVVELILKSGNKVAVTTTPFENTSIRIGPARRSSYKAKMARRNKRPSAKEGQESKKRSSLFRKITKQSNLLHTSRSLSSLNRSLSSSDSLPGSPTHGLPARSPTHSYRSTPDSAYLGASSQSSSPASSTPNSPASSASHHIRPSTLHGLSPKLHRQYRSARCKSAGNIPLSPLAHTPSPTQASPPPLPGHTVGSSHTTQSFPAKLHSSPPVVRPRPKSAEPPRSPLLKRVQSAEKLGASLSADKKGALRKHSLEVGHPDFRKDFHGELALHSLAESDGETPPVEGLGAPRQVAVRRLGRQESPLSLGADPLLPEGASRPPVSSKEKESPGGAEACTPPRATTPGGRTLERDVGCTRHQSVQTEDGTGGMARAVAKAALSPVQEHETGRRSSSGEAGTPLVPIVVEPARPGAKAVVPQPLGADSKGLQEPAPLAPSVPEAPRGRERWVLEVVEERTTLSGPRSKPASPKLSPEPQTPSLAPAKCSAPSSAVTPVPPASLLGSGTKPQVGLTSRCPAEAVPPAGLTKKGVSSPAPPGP
# T23 sequence (Q6PHR2 whole entry): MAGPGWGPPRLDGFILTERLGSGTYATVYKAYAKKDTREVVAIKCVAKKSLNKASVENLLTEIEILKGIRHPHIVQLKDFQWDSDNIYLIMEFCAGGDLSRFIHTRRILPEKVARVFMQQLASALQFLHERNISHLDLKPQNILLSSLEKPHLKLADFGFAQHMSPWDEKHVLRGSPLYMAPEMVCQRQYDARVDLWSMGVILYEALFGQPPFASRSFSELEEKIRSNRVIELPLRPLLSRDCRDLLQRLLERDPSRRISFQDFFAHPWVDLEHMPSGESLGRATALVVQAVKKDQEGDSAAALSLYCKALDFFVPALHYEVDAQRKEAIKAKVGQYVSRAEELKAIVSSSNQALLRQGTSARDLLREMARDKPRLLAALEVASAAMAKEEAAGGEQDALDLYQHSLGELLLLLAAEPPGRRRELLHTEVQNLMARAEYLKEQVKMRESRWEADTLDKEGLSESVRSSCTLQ
# T10 sequence (Q15831 whole entry): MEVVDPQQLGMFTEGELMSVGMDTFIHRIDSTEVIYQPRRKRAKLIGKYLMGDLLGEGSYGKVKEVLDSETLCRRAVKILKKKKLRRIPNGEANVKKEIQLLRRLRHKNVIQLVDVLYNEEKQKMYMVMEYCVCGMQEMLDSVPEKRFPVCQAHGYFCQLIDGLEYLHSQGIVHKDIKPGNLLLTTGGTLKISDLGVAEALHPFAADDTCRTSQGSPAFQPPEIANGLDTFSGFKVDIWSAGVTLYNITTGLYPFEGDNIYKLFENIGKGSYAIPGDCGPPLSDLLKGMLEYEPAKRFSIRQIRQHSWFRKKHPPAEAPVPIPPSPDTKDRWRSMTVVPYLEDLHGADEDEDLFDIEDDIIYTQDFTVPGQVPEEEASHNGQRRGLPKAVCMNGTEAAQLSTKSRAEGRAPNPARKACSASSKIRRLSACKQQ
# T2 sequence (Q9UM73 19-1620 C1156Y): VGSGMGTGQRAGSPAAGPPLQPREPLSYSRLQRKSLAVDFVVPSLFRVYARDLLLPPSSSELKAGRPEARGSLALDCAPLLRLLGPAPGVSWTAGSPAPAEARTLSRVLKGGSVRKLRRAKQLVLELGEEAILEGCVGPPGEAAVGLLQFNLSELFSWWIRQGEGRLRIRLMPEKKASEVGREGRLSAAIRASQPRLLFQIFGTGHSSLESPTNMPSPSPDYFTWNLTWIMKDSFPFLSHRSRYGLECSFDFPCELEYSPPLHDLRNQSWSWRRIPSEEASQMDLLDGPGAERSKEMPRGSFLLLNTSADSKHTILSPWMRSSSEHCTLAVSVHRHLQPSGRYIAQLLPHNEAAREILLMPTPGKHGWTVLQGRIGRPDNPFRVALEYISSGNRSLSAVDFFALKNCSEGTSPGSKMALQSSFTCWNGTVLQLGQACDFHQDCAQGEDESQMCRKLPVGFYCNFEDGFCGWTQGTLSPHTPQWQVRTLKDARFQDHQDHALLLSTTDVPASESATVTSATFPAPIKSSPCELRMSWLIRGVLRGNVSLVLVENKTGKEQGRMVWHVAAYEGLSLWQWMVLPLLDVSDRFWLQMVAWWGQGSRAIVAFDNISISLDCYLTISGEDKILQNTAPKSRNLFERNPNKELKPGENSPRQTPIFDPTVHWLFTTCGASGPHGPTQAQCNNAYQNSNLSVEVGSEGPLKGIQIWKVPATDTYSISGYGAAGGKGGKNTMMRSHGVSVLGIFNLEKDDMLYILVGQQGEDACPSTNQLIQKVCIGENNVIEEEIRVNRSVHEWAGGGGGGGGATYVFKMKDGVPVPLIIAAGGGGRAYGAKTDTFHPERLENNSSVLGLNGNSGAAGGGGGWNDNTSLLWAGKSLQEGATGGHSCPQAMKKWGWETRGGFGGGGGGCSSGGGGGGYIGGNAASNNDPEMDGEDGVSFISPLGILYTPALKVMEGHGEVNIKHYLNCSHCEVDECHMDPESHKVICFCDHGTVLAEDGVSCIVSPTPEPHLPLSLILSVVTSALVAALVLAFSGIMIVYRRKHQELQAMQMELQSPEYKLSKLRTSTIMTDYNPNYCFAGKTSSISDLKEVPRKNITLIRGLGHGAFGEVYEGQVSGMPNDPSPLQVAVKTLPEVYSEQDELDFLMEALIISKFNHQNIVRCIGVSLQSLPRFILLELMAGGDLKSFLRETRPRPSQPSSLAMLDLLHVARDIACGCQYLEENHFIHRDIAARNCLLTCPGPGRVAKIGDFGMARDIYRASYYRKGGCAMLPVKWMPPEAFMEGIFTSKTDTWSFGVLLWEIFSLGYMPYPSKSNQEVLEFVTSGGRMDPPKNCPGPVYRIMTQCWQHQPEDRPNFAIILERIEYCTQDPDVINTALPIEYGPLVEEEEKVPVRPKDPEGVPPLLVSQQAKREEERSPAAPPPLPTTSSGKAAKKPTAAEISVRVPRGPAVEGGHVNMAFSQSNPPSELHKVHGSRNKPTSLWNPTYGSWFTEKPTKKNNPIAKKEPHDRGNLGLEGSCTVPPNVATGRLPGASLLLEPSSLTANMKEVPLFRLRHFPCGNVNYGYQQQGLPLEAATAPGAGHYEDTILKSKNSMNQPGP
# T5 sequence (P49759 whole entry): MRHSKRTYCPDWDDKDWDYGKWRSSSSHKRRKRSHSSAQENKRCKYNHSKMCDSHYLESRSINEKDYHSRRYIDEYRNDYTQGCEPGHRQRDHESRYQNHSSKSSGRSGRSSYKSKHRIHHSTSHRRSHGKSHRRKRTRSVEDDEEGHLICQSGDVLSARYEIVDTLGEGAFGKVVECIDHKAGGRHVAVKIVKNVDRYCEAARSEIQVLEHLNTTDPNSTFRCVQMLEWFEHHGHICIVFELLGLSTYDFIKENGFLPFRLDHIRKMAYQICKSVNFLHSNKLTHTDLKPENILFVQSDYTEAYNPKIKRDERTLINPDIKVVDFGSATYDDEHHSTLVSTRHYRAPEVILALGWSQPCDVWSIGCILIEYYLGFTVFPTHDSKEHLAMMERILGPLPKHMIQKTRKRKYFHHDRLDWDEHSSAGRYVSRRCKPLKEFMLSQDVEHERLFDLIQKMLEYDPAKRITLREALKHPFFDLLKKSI
# T15 sequence (O94921 whole entry): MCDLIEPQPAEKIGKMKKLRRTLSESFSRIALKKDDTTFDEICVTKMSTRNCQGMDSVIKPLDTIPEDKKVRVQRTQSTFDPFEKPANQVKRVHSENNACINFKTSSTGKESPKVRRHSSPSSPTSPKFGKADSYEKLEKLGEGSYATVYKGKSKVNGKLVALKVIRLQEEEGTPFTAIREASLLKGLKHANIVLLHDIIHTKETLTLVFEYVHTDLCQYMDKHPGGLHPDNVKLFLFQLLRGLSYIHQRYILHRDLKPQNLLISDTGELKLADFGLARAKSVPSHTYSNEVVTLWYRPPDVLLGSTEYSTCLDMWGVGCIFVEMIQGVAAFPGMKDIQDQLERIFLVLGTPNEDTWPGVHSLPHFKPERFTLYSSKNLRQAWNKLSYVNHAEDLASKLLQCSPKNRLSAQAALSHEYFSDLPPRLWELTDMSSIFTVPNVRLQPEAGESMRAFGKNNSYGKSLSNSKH
smiles,measurement,setting,value
"CC(C)(C)c1cc(NC(=O)Nc2ccc(Oc3ncnc4[nH]ncc34)c(F)c2)no1 [SKLB-677, 1-(4-(1H-pyrazolo[3,4-d]pyrimidin-4-yloxy)-3-fluorophenyl)-3-(5-tert-butylisoxazol-3-yl)urea]",remaining binding at 10 µM,AKT3,100%
same,remaining binding at 10 µM,ALK(C1156Y),17%
same,remaining binding at 10 µM,ASK2,32%
same,remaining binding at 10 µM,CAMKK2,30%
same,remaining binding at 10 µM,CLK1,5.8%
same,remaining binding at 10 µM,DLK,86%
same,remaining binding at 10 µM,EPHB4,1%
same,remaining binding at 10 µM,ERK1,76%
same,remaining binding at 10 µM,KIT,0%
same,remaining binding at 10 µM,LKB1,96%
same,remaining binding at 10 µM,MARK3,68%
same,remaining binding at 10 µM,MAST1,100%
same,remaining binding at 10 µM,MTOR,100%
same,remaining binding at 10 µM,MUSK,0%
same,remaining binding at 10 µM,PFTK1,0.05%
same,remaining binding at 10 µM,PHKG1,85%
same,remaining binding at 10 µM,PHKG2,100%
same,remaining binding at 10 µM,PIK3CA(M1043I),100%
same,remaining binding at 10 µM,SGK2,78%
same,remaining binding at 10 µM,SIK,97%
same,remaining binding at 10 µM,TAOK3,0.55%
same,remaining binding at 10 µM,TESK1,82%
same,remaining binding at 10 µM,ULK3,51%
same,Kd,FLT3-ITD,1.3 nM
same,expression of β-catenin target genes,[1],considerably decrease
same,IC50,C32,> 10 µM
